From publication PMC10518257 (Nature Cancer, 2023)
Several values for one entry are separate records, joined by “and”; a condition that tells them apart may be missing. Equal entries are not always repeated.

Legend:
[1] = test system: LUAD-0087AS2 PDX; test: PDX efficacy study; details: individual animals; for Tumor volume: LUAD-0087AS2, 30 mg/kg BID
[2] = test system: LUAD-0057AS1 PDX; test: PDX efficacy study
[3] = in vivo; details: male, BALB/c, mouse, brain and plasma, po, 50 mg/kg, Kp,uu,brain (unbound brain/plasma concentration ratio), male BALB/c mice, 50 mg per kg oral, 0.5 h or 1 h
[4] = biological target: T1, KIF5B–RET G810A (Homo sapiens, UniProt P07949, G810A); test: In-cell western assay of RET autophosphorylation; type: cell-based; details: Jump-In GripTite HEK293 cells, one hour; Mean
T1 construct: Fusion of the RET kinase domain with several N-terminal partners such as kinesin family 5B (KIF5B); KIF5B (N-terminal fusion partner); expressed in transfected cells; host or cells: Jump-In GripTite HEK293 (transient)
T1 sequence (P07949 713-1063 G810A limits assumed): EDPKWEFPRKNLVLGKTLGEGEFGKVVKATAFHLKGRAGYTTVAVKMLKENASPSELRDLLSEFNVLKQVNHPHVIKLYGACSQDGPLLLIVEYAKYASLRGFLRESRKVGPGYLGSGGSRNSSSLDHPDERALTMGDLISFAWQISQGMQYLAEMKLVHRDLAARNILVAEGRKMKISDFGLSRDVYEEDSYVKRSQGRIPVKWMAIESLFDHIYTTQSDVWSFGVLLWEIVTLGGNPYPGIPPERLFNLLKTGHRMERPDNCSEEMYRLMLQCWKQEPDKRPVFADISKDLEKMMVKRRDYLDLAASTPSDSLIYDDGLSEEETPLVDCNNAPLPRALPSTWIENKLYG

[5] = biological target: T2, KIF5B–RET L730R (Homo sapiens, UniProt P07949, L730R); test: In-cell western assay of RET autophosphorylation; type: cell-based; details: Jump-In GripTite HEK293 cells, one hour; Mean
T2 construct: Fusion of the RET kinase domain with several N-terminal partners such as kinesin family 5B (KIF5B); KIF5B (N-terminal fusion partner); expressed in transfected cells; host or cells: Jump-In GripTite HEK293 (transient)
T2 sequence (P07949 713-1063 L730R limits assumed): as the sequence (P07949 713-1063 G810A limits assumed) above, with L18R, A98G counted along it

[6] = biological target: T3, KIF5B–RET L772M (Homo sapiens, UniProt P07949, L772M); test: In-cell western assay of RET autophosphorylation; type: cell-based; details: Jump-In GripTite HEK293 cells, one hour; Mean
T3 construct: Fusion of the RET kinase domain with several N-terminal partners such as kinesin family 5B (KIF5B); KIF5B (N-terminal fusion partner); expressed in transfected cells; host or cells: Jump-In GripTite HEK293 (transient)
T3 sequence (P07949 713-1063 L772M limits assumed): as the sequence (P07949 713-1063 G810A limits assumed) above, with L60M, A98G counted along it

[7] = biological target: T4, KIF5B–RET G810S (Homo sapiens, UniProt P07949, G810S); test: In-cell western assay of RET autophosphorylation; type: cell-based; details: Jump-In GripTite HEK293 cells, one hour; Mean
T4 construct: Fusion of the RET kinase domain with several N-terminal partners such as kinesin family 5B (KIF5B); KIF5B (N-terminal fusion partner); expressed in transfected cells; host or cells: Jump-In GripTite HEK293 (transient)
T4 sequence (P07949 713-1063 G810S limits assumed): as the sequence (P07949 713-1063 G810A limits assumed) above, with A98S counted along it

[8] = biological target: T5, KIF5B–RET E732K (Homo sapiens, UniProt P07949, E732K); test: In-cell western assay of RET autophosphorylation; type: cell-based; details: Jump-In GripTite HEK293 cells, one hour; Mean
T5 construct: Fusion of the RET kinase domain with several N-terminal partners such as kinesin family 5B (KIF5B); KIF5B (N-terminal fusion partner); expressed in transfected cells; host or cells: Jump-In GripTite HEK293 (transient)
T5 sequence (P07949 713-1063 E732K limits assumed): as the sequence (P07949 713-1063 G810A limits assumed) above, with E20K, A98G counted along it

[9] = biological target: T6, KIF5B–RET M759I (Homo sapiens, UniProt P07949, M759I); test: In-cell western assay of RET autophosphorylation; type: cell-based; details: Jump-In GripTite HEK293 cells, one hour; Mean (TPX-0046: the three replicates)
T6 construct: Fusion of the RET kinase domain with several N-terminal partners such as kinesin family 5B (KIF5B); KIF5B (N-terminal fusion partner); expressed in transfected cells; host or cells: Jump-In GripTite HEK293 (transient)
T6 sequence (P07949 713-1063 M759I limits assumed): as the sequence (P07949 713-1063 G810A limits assumed) above, with M47I, A98G counted along it

[10] = biological target: panel of 255 (vepafestinib) or 256 (all other inhibitors) recombinant kinases; test: Kinase selectivity profiling at a single concentration (Carna Biosciences); type: biochemical; details: 26 nM, 256 kinases
[11] = biological target: T7, KIF5B–RET I788N (Homo sapiens, UniProt P07949, I788N); test: In-cell western assay of RET autophosphorylation; type: cell-based; details: Jump-In GripTite HEK293 cells, one hour; Mean
T7 construct: Fusion of the RET kinase domain with several N-terminal partners such as kinesin family 5B (KIF5B); KIF5B (N-terminal fusion partner); expressed in transfected cells; host or cells: Jump-In GripTite HEK293 (transient)
T7 sequence (P07949 713-1063 I788N limits assumed): as the sequence (P07949 713-1063 G810A limits assumed) above, with I76N, A98G counted along it

[12] = biological target: T8, recombinant human RET (Homo sapiens, UniProt P07949); test: RET^WT kinase-inhibition assay (LANCE TR-FRET); type: biochemical; details: 10 μM ATP
T8 construct: purchased Carna Biosciences, Inc (Kobe, Japan)
T8 sequence (P07949 29-1114): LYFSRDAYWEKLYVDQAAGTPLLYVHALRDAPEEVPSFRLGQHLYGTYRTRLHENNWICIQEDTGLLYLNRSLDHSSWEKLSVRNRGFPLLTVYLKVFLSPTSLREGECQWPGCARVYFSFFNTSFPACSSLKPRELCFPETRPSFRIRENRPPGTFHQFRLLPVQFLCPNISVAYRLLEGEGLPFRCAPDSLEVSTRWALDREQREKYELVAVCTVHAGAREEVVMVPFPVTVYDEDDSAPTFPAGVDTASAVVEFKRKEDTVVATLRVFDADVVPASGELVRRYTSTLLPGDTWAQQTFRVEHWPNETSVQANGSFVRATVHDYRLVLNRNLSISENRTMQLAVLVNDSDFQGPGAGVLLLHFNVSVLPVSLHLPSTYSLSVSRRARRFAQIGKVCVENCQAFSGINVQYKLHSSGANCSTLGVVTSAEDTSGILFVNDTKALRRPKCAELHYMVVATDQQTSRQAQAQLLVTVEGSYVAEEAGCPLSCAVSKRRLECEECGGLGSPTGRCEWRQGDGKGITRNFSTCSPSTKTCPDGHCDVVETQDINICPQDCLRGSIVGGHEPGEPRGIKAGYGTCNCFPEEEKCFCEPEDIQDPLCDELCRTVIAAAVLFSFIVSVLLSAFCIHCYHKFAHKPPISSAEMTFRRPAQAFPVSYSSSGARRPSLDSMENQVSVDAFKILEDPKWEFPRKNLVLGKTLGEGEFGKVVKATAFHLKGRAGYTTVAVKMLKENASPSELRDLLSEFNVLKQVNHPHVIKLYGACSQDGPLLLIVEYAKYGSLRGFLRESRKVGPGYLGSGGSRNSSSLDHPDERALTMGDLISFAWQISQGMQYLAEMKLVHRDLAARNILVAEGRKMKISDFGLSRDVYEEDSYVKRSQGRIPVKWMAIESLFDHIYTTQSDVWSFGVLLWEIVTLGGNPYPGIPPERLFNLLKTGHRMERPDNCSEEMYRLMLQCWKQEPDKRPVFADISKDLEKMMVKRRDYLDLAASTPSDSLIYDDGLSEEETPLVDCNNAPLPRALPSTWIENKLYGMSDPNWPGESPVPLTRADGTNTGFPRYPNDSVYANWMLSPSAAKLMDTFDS

[13] = biological target: T9, KIF5B–RET L760Q (Homo sapiens, UniProt P07949, L760Q); test: In-cell western assay of RET autophosphorylation; type: cell-based; details: Jump-In GripTite HEK293 cells, one hour; Mean
T9 construct: Fusion of the RET kinase domain with several N-terminal partners such as kinesin family 5B (KIF5B); KIF5B (N-terminal fusion partner); expressed in transfected cells; host or cells: Jump-In GripTite HEK293 (transient)
T9 sequence (P07949 713-1063 L760Q limits assumed): as the sequence (P07949 713-1063 G810A limits assumed) above, with L48Q, A98G counted along it

[14] = biological target: T10, KIF5B–RET WT (Homo sapiens, UniProt P07949); test: In-cell western assay of RET autophosphorylation; type: cell-based; details: Jump-In GripTite HEK293, 1 h, phospho-RET (Y905)/RET
T10 construct: Fusion of the RET kinase domain with several N-terminal partners such as kinesin family 5B (KIF5B); KIF5B (N-terminal fusion partner); expressed in transfected cells; host or cells: Jump-In GripTite HEK293 (transient, pJTI Fast-based vector)
T10 sequence (P07949 713-1063 limits assumed): as the sequence (P07949 713-1063 G810A limits assumed) above, with A98G counted along it

[15] = biological target: T11, KIF5B–RET G810D (Homo sapiens, UniProt P07949, G810D); test: In-cell western assay of RET autophosphorylation; type: cell-based; details: Jump-In GripTite HEK293 cells, one hour; Mean
T11 construct: Fusion of the RET kinase domain with several N-terminal partners such as kinesin family 5B (KIF5B); KIF5B (N-terminal fusion partner); expressed in transfected cells; host or cells: Jump-In GripTite HEK293 (transient)
T11 sequence (P07949 713-1063 G810D limits assumed): as the sequence (P07949 713-1063 G810A limits assumed) above, with A98D counted along it

[16] = biological target: T12, KIF5B–RET L730Q (Homo sapiens, UniProt P07949, L730Q); test: In-cell western assay of RET autophosphorylation; type: cell-based; details: Jump-In GripTite HEK293 cells, one hour; Mean
T12 construct: Fusion of the RET kinase domain with several N-terminal partners such as kinesin family 5B (KIF5B); KIF5B (N-terminal fusion partner); expressed in transfected cells; host or cells: Jump-In GripTite HEK293 (transient)
T12 sequence (P07949 713-1063 L730Q limits assumed): as the sequence (P07949 713-1063 G810A limits assumed) above, with L18Q, A98G counted along it

[17] = biological target: T13, KIF5B–RET E768Q (Homo sapiens, UniProt P07949, E768Q); test: In-cell western assay of RET autophosphorylation; type: cell-based; details: Jump-In GripTite HEK293 cells, one hour; Mean
T13 construct: Fusion of the RET kinase domain with several N-terminal partners such as kinesin family 5B (KIF5B); KIF5B (N-terminal fusion partner); expressed in transfected cells; host or cells: Jump-In GripTite HEK293 (transient)
T13 sequence (P07949 713-1063 E768Q limits assumed): as the sequence (P07949 713-1063 G810A limits assumed) above, with E56Q, A98G counted along it

[18] = biological target: T14, KIF5B–RET G810R (Homo sapiens, UniProt P07949, G810R); test: In-cell western assay of RET autophosphorylation; type: cell-based; details: Jump-In GripTite HEK293, 1 h, phospho-RET (Y905)/RET
T14 construct: Fusion of the RET kinase domain with several N-terminal partners such as kinesin family 5B (KIF5B); KIF5B (N-terminal fusion partner); expressed in transfected cells; host or cells: Jump-In GripTite HEK293 (transient)
T14 sequence (P07949 713-1063 G810R limits assumed): as the sequence (P07949 713-1063 G810A limits assumed) above, with A98R counted along it

[19] = biological target: T15, KIF5B–RET G810C (Homo sapiens, UniProt P07949, G810C); test: In-cell western assay of RET autophosphorylation; type: cell-based; details: Jump-In GripTite HEK293 cells, one hour; Mean
T15 construct: Fusion of the RET kinase domain with several N-terminal partners such as kinesin family 5B (KIF5B); KIF5B (N-terminal fusion partner); expressed in transfected cells; host or cells: Jump-In GripTite HEK293 (transient)
T15 sequence (P07949 713-1063 G810C limits assumed): as the sequence (P07949 713-1063 G810A limits assumed) above, with A98C counted along it

[20] = biological target: T16, KIF5B–RET Y806C (Homo sapiens, UniProt P07949, Y806C); test: In-cell western assay of RET autophosphorylation; type: cell-based; details: Jump-In GripTite HEK293 cells, one hour; Mean
T16 construct: Fusion of the RET kinase domain with several N-terminal partners such as kinesin family 5B (KIF5B); KIF5B (N-terminal fusion partner); expressed in transfected cells; host or cells: Jump-In GripTite HEK293 (transient)
T16 sequence (P07949 713-1063 Y806C limits assumed): as the sequence (P07949 713-1063 G810A limits assumed) above, with Y94C, A98G counted along it

[21] = biological target: T17, KIF5B–RET G736A (Homo sapiens, UniProt P07949, G736A); test: In-cell western assay of RET autophosphorylation; type: cell-based; details: Jump-In GripTite HEK293 cells, one hour; Mean
T17 construct: Fusion of the RET kinase domain with several N-terminal partners such as kinesin family 5B (KIF5B); KIF5B (N-terminal fusion partner); expressed in transfected cells; host or cells: Jump-In GripTite HEK293 (transient)
T17 sequence (P07949 713-1063 G736A limits assumed): as the sequence (P07949 713-1063 G810A limits assumed) above, with G24A, A98G counted along it

COC1(C(=O)NC(C)c2ccc(-n3cc(F)cn3)nc2)CCC(c2nc(C)cc(Nc3cc(C)[nH]n3)n2)CC1 (centres unmarked) [Prasletinib]
Tumor volume ([1]; treatment day 0): 122.74 and 122.52 (2×) and 118.47 (2×) | Tumor volume ([1]; treatment day 3): 116.87 and 110.97 (2×) and 118.47 and 114.83 | Tumor volume ([1]; treatment day 7): 100.16 and 96.62 (2×) and 101.37 and 91.61 | Tumor volume ([1]; treatment day 10): 100.16 and 103.77 and 96.62 and 99.78 and 95.03 | Tumor volume ([1]; treatment day 14): 96.88 and 83.83 and 88.25 and 99.78 and 90.28 | Tumor volume ([1]; treatment day 17): 103.77 and 79.42 and 83.83 (2×) and 96.62 | Tumor volume ([1]; treatment day 21): 90.28 and 70.82 and 74.9 and 83.83 (2×) | Tumor volume ([1]; treatment day 24): 74.9 and 54.36 and 71.99 (2×) and 58.99 | Tumor volume ([1]; treatment day 29): 72.18 and 54.36 and 71.99 and 57.83 and 56.67 | Tumor volume ([1]; treatment day 32): 75.04 and 60.32 (2×) and 74.9 and 57.83 | Tumor volume ([1]; treatment day 35): 75.04 and 60.32 and 74.9 (2×) and 57.83 | Tumor volume ([1]; treatment day 38): 75.04 and 60.32 and 77.63 and 90.28 and 57.83 | Tumor volume ([1]; treatment day 42): 77.87 and 68.07 and 77.63 and 90.28 and 60.32 | Tumor volume ([1]; treatment day 45): 77.87 and 68.07 and 70.69 (2×) and 60.32

COc1cc2nccc(Oc3ccc(NC(=O)C4(C(=O)Nc5ccc(F)cc5)CC4)cc3)c2cc1OC [Cabozantinib]
tumor shrinkage ([2]; 30 mg per kg QD): did not lead to any tumor shrinkage | Area Under Curve of tumor growth, Mean ([2]; 30 mg/kg QD): 1051 | Tumor volume ([2]; 30 mg/kg QD, day 0, individual animals): 139.24 mm3 and 130.83 mm3 and 132.84 mm3 and 134.85 mm3 and 137.16 mm3 and 136.86 mm3 and 128.59 mm3 (2×) | Tumor volume ([2]; 30 mg/kg QD, day 3, individual animals): 143.69 mm3 (2×) and 141.55 mm3 and 159.83 mm3 and 157.37 mm3 and 161.94 mm3 and 155.09 mm3 and 150.43 mm3 | Tumor volume ([2]; 30 mg/kg QD, day 7, individual animals): 150.13 mm3 and 145.84 mm3 and 157.07 mm3 and 171.9 mm3 and 159.66 mm3 and 132.84 mm3 and 161.94 mm3 and 154.85 mm3 | Tumor volume ([2]; 30 mg/kg QD, day 10, individual animals): 150.13 mm3 and 154.85 mm3 (2×) and 171.06 mm3 and 197.55 mm3 and 217.15 mm3 and 132.84 mm3 and 165.92 mm3 | Tumor volume ([2]; 30 mg/kg QD, day 14, individual animals): 150.13 mm3 and 176.28 mm3 and 188.03 mm3 (3×) and 224.35 mm3 and 288.71 mm3 and 168.78 mm3 | Tumor volume ([2]; 30 mg/kg QD, day 19, individual animals): 150.13 mm3 and 183.33 mm3 and 195.09 mm3 and 204.49 mm3 and 294.92 mm3 and 176.28 mm3 and 193.69 mm3 and 188.03 mm3 | Tumor volume ([2]; 30 mg/kg QD, day 23, individual animals): 194.67 mm3 and 219.37 mm3 and 246.79 mm3 and 251.12 mm3 and 340.1 mm3 and 242.75 mm3 and 230.72 mm3 and 228.34 mm3 | Change in Tumor Volume ([2]; 30 mg/kg QD, end of study, individual tumors): 39.809% and 67.6756% and 85.7799% and 86.2217% and 147.959% and 77.371% and 79.423% and 77.5721%

C[C@H]1CNC(=O)c2cnn3cc4c(nc23)N(Cc2cc(F)cnc2O1)[C@@H]1CCC[C@@H]1O4 [TPX-0046]
Kp uu [3]: 0.077 | IC50 [4]: 6.53 nM | IC50 [5]: 4.49 nM | IC50 [6]: 2.69 nM | IC50 [7]: 5.87 nM | IC50 [8]: 14.7 nM | IC50 [9]: < 1 nM and 1.2 nM and 1.72 nM | kinases inhibited by >50% [10]: 39 | IC50 [11]: 50.6 nM | IC50 [12]: 0.26 ± 0.02 nM | IC50 [13]: 5.35 nM | IC50 [14]: 21.9 nM | IC50 [15]: 57.9 nM | IC50 [16]: 16.6 nM | IC50 [17]: 4.05 nM | IC50 [18]: 108 nM | IC50 [19]: 36.1 nM | IC50 [20]: 50 nM | IC50 [21]: 3.21 nM

COc1ccc(CN2C3CC2CN(c2ccc(-c4cc(OCC(C)(C)O)cn5ncc(C#N)c45)cn2)C3)cn1 [Sepercatinib]
Change in tumor volume (% from base line) ([1]; Fig. 6a LUAD-0087AS2, selpercatinib 30 mg/kg BID): -13.818% and -42.542% and -38.123% and -35.767% and -33.072%
